{"source": "patent US20150337267A1", "about": "“REPROGRAMMED STEM CELL” (KYOTO UNIVERSITY, priority 2013, published 2015)", "key": {"[1]": {"tested_on": "phosphorylated mTOR (p-mTOR)", "test": "Phosphorylation of mTOR in iRS cells", "format": "cell-based, human", "details": "addition to conditioned medium, vs DMSO control", "experimental": "(§1) CM is conditioned medium.\niRS cells were plated at a high density (1×10^6 cells) on a 3 cm dish coated with Matrigel, 0.5 mM VPA was added to the MEF-conditioned medium and culture was continued. […] Phosphorylation of mTOR then was measured."}, "iRS cells": {"tested_on": "iRS cells", "test": "Conversion of iRS cells to DsRed-negative (pluripotent) cells in high-density culture", "format": "cell-based, human", "details": "0.5 mM added to MEF-conditioned medium, high-density culture (1×10^6 cells, 3 cm dish), day 6 after plating", "experimental": "as §1\nThe iRS cells were plated at a high density (1×10^6 cells) on a 3 cm dish coated with Matrigel, and culture was continued in a MEF-conditioned medium. From day 3, DsRed-negative cells were occasionally found, and DsRed-negative cell clump could be confirmed on day 6. On day 10, ES cell-like colony could be confirmed (FIG. 3A). The expression levels of exogenous OCT4 and SOX2 at that time were confirmed by quantitative PCR. Expression of exogenous gene disappeared on day 6 of high-density culture, and re-expression was void thereafter (FIG. 3B). Furthermore, the expression levels of the endogenous OCT4, TDGF1 and ECAD were confirmed by quantitative PCR. As a result, expression of these pluripotent marker genes was confirmed (FIG. 3C). Similarly, the mRNA expression levels of other pluripotent marker genes were confirmed on a heat map. As a result, mostly similar gene expression profiles were confirmed on day 6 and day 10 (FIG. 3D). Moreover, SSEA4 and ECAD, which are surface antigen markers showing pluripotency, were tested by an immunostaining method. As a result, both surface antigens could be recognized from day 6 (FIG. 3E). […]\niRS cells were plated at a high density (1×10^6 cells) on a 3 cm dish coated with Matrigel, 0.5 mM VPA was added to the MEF-conditioned medium and culture was continued. […] Phosphorylation of mTOR then was measured. […]"}}}
{"smiles": "CCCC(CCC)C(=O)[O-].[Na+]", "note": "[VPA, sodium valproate]", "values": [{"measurement": "amount of phosphorylated mTOR (p-mTOR)", "setting": "[1]", "value": "increased"}, {"measurement": "conversion rate to DsRed-negative cells", "setting": "iRS cells", "value": "strikingly high"}]}
